Assay results published in patent EP2181589A1, “Neurotoxic sterol glycosides” (Shaw, Christopher Ariel, priority 2008, dated 2010).
Marks after values point to notes of the source that are not given here.

Columns and labels:
Cytochrome c oxidase = Cytochrome c oxidase histochemistry; format: in vivo, CD-1 mice; conditions: for Cytochrome c oxidase activity: SG-fed vs control
Method: (§1) The synthetic SG was mixed with finely ground Purina Chow mouse pellets (Mouse Diet™, Purina) to create the experimental pellets with a SG content of 1000 µg per pellet. Dry materials were blended with a sterile silicon spatula. For every 5 g of standard feed, 2.5 mL of doubly-distilled water (dd)H2O was added and the dough was kneaded and round up into pellets. A single sterol glucoside containing pellet was placed in the feeding tray each morning before the addition of regular mouse chow (ad libitum). All experimental pellets were entirely consumed by the mice each day. Control mice were fed standard mouse chow pellets of identical weight with no additives. SG feeding was conducted daily for 15 weeks and mice were behaviorally monitored until sacrifice at 35 weeks (time point 1) or 52 weeks (time point 2).
Tissue-mounted slides were processed for […] in a manner adapted from Seligman et al. (1968) and Wong-Riley (1979). Sections were rinsed in coplin jars for 15 minutes at RT in three changes of PBS and subsequently incubated with a media comprised of 50 mg of 3,3'-diaminobenzidine tetrahydrochloride (DAB) (DAB substrate system, Vector Laboratories, Burlingame, CA, USA), 90 mL 0.1M phosphate buffer, 20 mg cytochrome c (type III, Sigma-Aldrich Co., Oakville, ON, Canada), and 4 g of sucrose in a dish submerged in a water bath maintained at 37°C in the dark for 2 hours. The sections were monitored closely for the brown reaction product to appear within the tissue. Once a medium-brown color was achieved, slides were removed from the incubation media and rinsed for 15 minutes in three changes of PBS to stop the reaction. This was followed with a 2 minutes rinse in distilled water to remove residue from the slides. The slides were dried under a fume hood and cover-slipped with Entellen (Merck, Darmstadt, Germany).
The numbers of immunoreactive somata or inclusions were counted across the ventral horn of the spinal cord, across brain hemispheres, or per dorsal or ventral root with the 40x objective lens in a 600 µm / 600 µm area within region perimeters defined by a mouse brain atlas (2001). For each animal, eight cross-sections per spinal cord or brain region were studied. […] For quantification of the level of mitochondrial activity (cytochrome c oxidase labelling) in the lumbar spinal cord or tyrosine hydroxylase immunoreactivity in the substantia nigra pars compacta and striatal sections, images captured using the Motic B5 Professional Series 3.0 microscope (Motic Instruments Inc., Richmond, ON) and analyzed using Motic B5 Professional, Motic Images Advanced 3.0 (Motic Instruments Inc., Richmond, ON) were scanned into a TIFF format file and analysed using the NIH Image J 1.37 software to measure density levels of antibody labelling. […]

CD-1 mice = test: Gait analysis (Digigait); format: in vivo; conditions: SG-fed vs control
Method: Five-month old male CD-1 mice (30.1-35.7 g, 7.5 cm - 8.8 cm) were purchased from Charles River (Wilmington, MA). Adult mice were chosen to mimic the mean age of onset of ALS-PDC (Kurland, 1988; Kurland et al., 1994). Thirty mice for the SG study were randomly divided into 2 groups (14 control and 16 experimental animals). All animals were housed singly in a virus-free barrier facility in a room maintained at 22°C under a 12 hour light/dark cycle. The mice were provided ad libitum access to food and water.
as §1
Gait analysis: In order to examine spatial and temporal indices of front and hind limb stepping patterns during forward locomotion, mice were required to run on a colorless (PVC and polycarbonate), straight, level, walled motorized belt (Digigait™, treadmill motor: DC, HP; torque 45 1b-in, Mouse Specifics, Inc., Boston, MA, USA) set at 30 rpm with a no-flicker light source (90-250 VAC; 25 kHZ, Mouse Specifics, Inc., Boston, MA, USA) and camera mounted ventrally (relative to the animal) to facilitate continuous ventral plane videography (up to 150 frames per second) of activity. Gait indices were analyzed with the complementary digital imaging software (Digigait™, Mouse Specifics, Inc., Boston, MA, USA) as per manufacturer's instructions. Briefly, the software converts "paw prints" into a digital signal and generates a temporal record of paw placement and breaks down the digital file into three main parameters: stride duration, swing duration, and stance duration. The stance duration is the period during which the paw of a limb is in contact with the belt surface. The software further subdivides the stance duration into two components: braking duration (the increase in paw contact area over a discrete time interval) and propulsion duration (the decrease in paw contact area over a discrete time interval). The swing duration is the period of time that a paw is not in contact with the belt surface. In addition to these factors, over a dozen additional characteristics, including stance factor, step-sequence pattern, propulsion, and cadence are generated to provide a spreadsheet format report of twenty-five gait indices.

CCC(C=CC(C)C1CCC2C3CC=C4CC(OC5OC(CO)C(O)C(O)C5O)CCC4(C)C3CCC12C)C(C)C (stereo not drawn) [SG]
Cytochrome c oxidase Activity, Optical density (Cytochrome c oxidase; SG-fed group over time, 35 to 52 wk): Optical density (SG-fed group over time): -36%**
Cytochrome c oxidase activity (Cytochrome c oxidase; 35 or 52 weeks): no significant differences
Cytochrome c oxidase activity (Cytochrome c oxidase; time-point 1, 35 wk): (ns)
Cytochrome c oxidase activity (Cytochrome c oxidase; time-point 2, 52 wk): (ns)
Forelimb braking (CD-1 mice; time-point 1, 35 wk): Forelimb braking (ns)
Forelimb propulsion (CD-1 mice; time-point 1, 35 wk): Forelimb propulsion (ns)
Forelimb stance width (CD-1 mice; time-point 1, 35 wk): Forelimb stance width (ns)
Forelimb stride length (CD-1 mice; time-point 1, 35 wk): Forelimb stride length (ns)
Hind limb braking (CD-1 mice; time-point 1, 35 wk): Hind limb braking (ns)
Hind limb propulsion (CD-1 mice; time-point 1, 35 wk): Hind limb propulsion (ns)
Hind limb stance width (CD-1 mice; time-point 1, 35 wk): Hind limb stance width (ns)
Hind limb stride frequency (CD-1 mice; time-point 1, 35 wk): Hind limb stride frequency (ns)
Hind limb stride length (CD-1 mice; time-point 1, 35 wk): Hind limb stride length (ns)
Forelimb braking (CD-1 mice; time-point 2, 52 wk): Forelimb braking* (*p<0.05)
Forelimb propulsion (CD-1 mice; time-point 2, 52 wk): Forelimb propulsion* (*p<0.05)
Hind limb braking (CD-1 mice; time-point 2, 52 wk): Hind limb braking* (*p<0.05)
Hind limb propulsion (CD-1 mice; time-point 2, 52 wk): Hind limb propulsion* (*p<0.05)
Hind limb stride frequency (CD-1 mice; time-point 2, 52 wk): Hind limb stride frequency* (*p<0.05)
